From patent US6440990B1, “O-alkylated rapamycin derivatives and their use, particularly as immunosuppressants” (Novartis AG, priority 1992, dated 2002)

Key:
[1] = Standard in vitro assays of immunosuppressivity in comparison to FK506 and rapamycin; type: cell-based
Source text: This can be shown in standard in vitro assays in comparison to FK506 and rapamycin. […] Nonimmunosuppressivity can also be shown in the in vivo models 1-7 above.

[2] = test system: Balb/c spleen cells stimulated with irradiated CBA spleen cells; details: cited from earlier work
IL-2 transcription = details: IL-2 reporter gene assay; cited from earlier work
[3] = test system: interleukin-6 (IL-6)-dependent mouse hybridoma cell line; details: cited from earlier work

| Compound | immunosuppressivity (in words) [1] | inhibition of the mixed lymphocyte reaction (in words) [2] | inhibition of IL-2 transcription (in words) (IL-2 transcription) | inhibition of IL-6 dependent T-cell proliferation (in words) [3] |
| --- | --- | --- | --- | --- |
| CO[C@H]1C[C@@H]2CC[C@@H](C)[C@@](O)(O2)C(=O)C(=O)N2CCCC[C@H]2C(=O)O[C@H]([C@H](C)C[C@@H]2CC[C@@H](O)[C@H](OC)C2)CC(=O)[C@H](C)/C=C(\C)[C@@H](OC)[C@@H](OC)C(=O)[C@H](C)C[C@H](C)/C=C/C=C/C=C/1C [Example 21, 28-O-Methyl-rapamycin] | not immunosuppressive | – | – | – |
| Rapamycin | – | very potent inhibitors | not active | strongly inhibits |
